# In patent US7732468B2, “3-aryl-6-aryl-[ 1,2,4]triazolo[3,4-b][1,3,4]thiadiazoles and related compounds as activators of caspases and inducers of apoptosis and the use thereof” (Cytovia, Inc., priority 2006, dated 2010):
# pEC50: −log10 of the molar value.
# Legend:
# Assay type in all cases: cell-based
# [1] = system: human Burkitt's lymphoma cell line Namalwa; assay: Caspase cascade activation in Namalwa cells; settings: Burkitts lymphoma cell, 48 h incubation, read-out: caspase potency EC50 Namalwa
# Experimental: (§1) Human breast cancer cell lines T-47D, human hepatocellular carcinoma cell line SNU398, human colon carcinoma cell line HCT116, human cancer cell line H11299, human Burkitt's lymphoma cell line Namalwa, human lymphoma cell line Raji, and human B cell lymphoblastoid cell line Ramos were grown according to media component mixtures designated by American Type Culture Collection+10% FCS (Invitrogen Corporation), in a 5% CO2-95% humidity incubator at 37° C. T-47D and H1299 cells were maintained at a cell density between 50 and 80% confluency at a cell density of 0.1 to 0.6×10^6 cells/mL. Cells were harvested at 600×g and resuspended at 0.65×10^6 cells/mL into appropriate media+10% FCS. An aliquot of 22.5 μL of cells was added to a well of a 384-well microtiter plate containing 2.5 μL of a 10% DMSO in RPMI-1640 media solution containing 0.16 to 100 μM of 6-(3,4-dimethoxyphenyl)-3-(2-methoxyphenyl)-[1,2,4]triazolo[3,4-b][1,3,4]thiadiazole or other test compound (0.016 to 10 μM final). An aliquot of 22.5 μL of cells was added to a well of a 384-well microtiter plate containing 2.5 μL of a 10% DMSO in RPMI-1640 media solution without test compound as the control sample. The samples were mixed by agitation and then incubated at 37° C. for 48 h in a 5% CO2-95% humidity incubator. After incubation, the samples were removed from the incubator and 25 μL of a solution containing 14 μM of N-(Ac-DEVD)-N′-ethoxycarbonyl-R110 (SEQ ID No.:1) fluorogenic substrate (Cytovia, Inc.; WO99/18856), 20% sucrose (Sigma), 20 mM DTT (Sigma), 200 mM NaCl (Sigma), 40 mM Na PIPES buffer pH 7.2 (Sigma), and 500 μg/mL lysolecithin (Calbiochem) was added. The samples were mixed by agitation and incubated at room temperature. Using a fluorescent plate reader (Model SPECTRAfluor Plus, Tecan), an initial reading (T=0) was made approximately 1-2 min after addition of the substrate solution, employing excitation at 485 nm and emission at 530 nm, to determine the background fluorescence of the control sample. After the 3 h incubation, the samples were read for fluorescence as above (T=3 h).
# (§2) The Relative Fluorescence Unit values (RFU) were used to calculate the sample readings as follows: RFU(T=3h)−Control RFU(T=0)=Net RFU(T=3h)
# (§3) The activity of caspase cascade activation was determined by the ratio of the net RFU value for 6-(3,4-dimethoxyphenyl)-3-(2-methoxyphenyl)-[1,2,4]triazolo[3,4-b][1,3,4]thiadiazole (Example I) or other test compound to that of control samples. The EC50 (nM) was determined by a sigmoidal dose-response calculation (Prism 3.0, GraphPad Software Inc.).
# [2] = system: Human breast cancer cell lines T-47D; assay: Caspase cascade activation (Ac-DEVD-R110 fluorogenic substrate) in T-47D cells; settings: T47D cells, 48 h incubation, read-out: caspase potency EC50 T47D
# Experimental: as §1, §2, §3
# [3] = system: human colon carcinoma cell line HCT116; assay: Caspase cascade activation in HCT116 cells; settings: HCT-116, 48 h incubation, read-out: caspase potency EC50 HCT116
# Experimental: as §1, §2, §3
# [4] = system: human lymphoma cell line Raji; assay: Caspase cascade activation in Raji cells; settings: RAJ1 cells, 48 h incubation, read-out: caspase potency EC50 RAJ1
# Experimental: as §1, §2, §3
# [5] = system: human hepatocellular carcinoma cell line SNU398; assay: Caspase cascade activation in SNU398 cells; settings: SNU-398, 48 h incubation, read-out: caspase potency EC50 SNU398
# Experimental: as §1, §2, §3
# [6] = system: human B cell lymphoblastoid cell line Ramos; assay: Caspase cascade activation in Ramos cells; settings: 48 h incubation, read-out: caspase potency EC50 RAMOS
# Experimental: as §1, §2, §3
Compound,pEC50 [1],pEC50 [2],pEC50 [3],pEC50 [4],pEC50 [5],pEC50 [6]
"CCc1nn(C)c(-c2nnc3sc(-c4ccc(OC)cc4)nn23)c1Cl [B, 3-(4-Chloro-3-ethyl-1-methyl-1H-pyrazol-5-yl)-6-(4-methoxyphenyl)-[1,2,4]triazolo[3,4-b][1,3,4]thiadiazole]",5.25,< 5.00,< 5.00,5.27,< 5.00,5.28
"CCN(CC)c1ccc(-c2nn3c(-c4cccnc4)nnc3s2)cc1 [D, 6-(4-Diethylaminophenyl)-3-(pyridin-3-yl)-[1,2,4]triazolo[3,4-b][1,3,4]thiadiazole]",5.61,–,–,5.29,–,5.96
"COc1cc(-c2nnc3sc(-c4ccc(C)c([N+](=O)[O-])c4)nn23)cc(OC)c1OC [Entry 1, 6-(4-Methyl-3-nitrophenyl)-3-(3,4,5-trimethoxyphenyl)-[1,2,4]triazolo[3,4-b][1,3,4]thiadiazole]",< 5.00,< 5.00,< 5.00,–,< 5.00,–
"COc1cc(-c2nnc3sc(-c4ccc(C)c(N)c4)nn23)cc(OC)c1OC [Entry 2, 6-(3-Amino-4-methylphenyl)-3-(3,4,5-trimethoxyphenyl)-[1,2,4]triazolo[3,4-b][1,3,4]thiadiazole]",6.20,5.79,5.88,–,6.19,–
"COc1cc(-c2nnc3sc(-c4ccc5nc[nH]c5c4)nn23)cc(OC)c1OC [Entry 3, 6-(1H-Benzo[d]imidazol-6-yl)-3-(3,4,5-trimethoxyphenyl)-[1,2,4]triazolo[3,4-b][1,3,4]thiadiazole]",< 5.00,< 5.00,< 5.00,–,< 5.00,–
"COc1ccccc1-c1nnc2sc(-c3ccc(C)c([N+](=O)[O-])c3)nn12 [Entry 4, 3-(2-Methoxyphenyl)-6-(4-methyl-3-nitrophenyl)-[1,2,4]triazolo[3,4-b][1,3,4]thiadiazole]",< 5.00,< 5.00,< 5.00,–,< 5.00,–
"COc1ccccc1-c1nnc2sc(-c3ccc(OC)c([N+](=O)[O-])c3)nn12 [Entry 6, 6-(4-Methoxy-3-nitrophenyl)-3-(2-methoxyphenyl)-[1,2,4]triazolo[3,4-b][1,3,4]thiadiazole]",< 5.00,< 5.00,< 5.00,–,< 5.00,–
"COc1cc(-c2nnc3sc(-c4ccc(N5CCOCC5)cc4)nn23)cc(OC)c1OC [Entry 8, 6-(4-Morpholinophenyl)-3-(3,4,5-trimethoxyphenyl)-[1,2,4]triazolo[3,4-b][1,3,4]thiadiazole]",< 5.00,< 5.00,< 5.00,–,< 5.00,–
"COc1ccccc1-c1nnc2sc(-c3ccc(N4CCOCC4)cc3)nn12 [Entry 9, 3-(2-Methoxyphenyl)-6-(4-morpholinophenyl)-[1,2,4]triazolo[3,4-b][1,3,4]thiadiazole]",5.62,5.90,5.58,–,5.64,–
"COc1ccccc1-c1nnc2sc(-c3ccc([N+](=O)[O-])c(OC)c3)nn12 [Entry 10, 6-(3-Methoxy-4-nitrophenyl)-3-(2-methoxyphenyl)-[1,2,4]triazolo[3,4-b][1,3,4]thiadiazole]",< 5.00,< 5.00,< 5.00,–,< 5.00,–
"COc1ccccc1-c1nnc2sc(-c3cccnc3)nn12 [Entry 11, 3-(2-Methoxyphenyl)-6-(pyridin-3-yl)-[1,2,4]triazolo[3,4-b][1,3,4]thiadiazole]",< 5.00,< 5.00,< 5.00,–,< 5.00,–
"COc1ccccc1-c1nnc2sc(-c3ccc4[nH]ncc4c3)nn12 [Entry 12, 6-(1H-indazol-5-yl)-3-(2-methoxyphenyl)-[1,2,4]triazolo[3,4-b][1,3,4]thiadiazole]",6.19,5.93,5.93,–,6.24,–
"COc1ccccc1-c1nnc2sc(-c3ccc4cc[nH]c4c3)nn12 [Entry 13, 6-(1H-indol-6-yl)-3-(2-methoxyphenyl)-[1,2,4]triazolo[3,4-b][1,3,4]thiadiazole]",6.81,6.01,6.18,–,6.84,–
"COc1ccc(-c2nnc3sc(-c4ccc(N(C)C)cc4)nn23)cc1OC [Entry C1, 3-(3,4-Dimethoxyphenyl)-6-(4-dimethylaminophenyl)-[1,2,4]triazolo[3,4-b][1,3,4]thiadiazole]",5.28,–,–,< 5.00,–,5.29
"CN(C)c1ccc(-c2nn3c(-c4ccncc4)nnc3s2)cc1 [Entry H1, 6-(4-Dimethylaminophenyl)-3-(pyridine-4-yl)-[1,2,4]triazolo[3,4-b][1,3,4]thiadiazole]",5.57,–,–,5.31,–,5.41
"CN(C)c1ccc(-c2nnc3sc(-c4cccc(N(C)C)c4)nn23)cc1 [Entry J1, 3-(4-Dimethylaminophenyl)-6-(3-dimethylaminophenyl)-[1,2,4]triazolo[3,4-b][1,3,4]thiadiazole]",5.26,–,–,< 5.00,–,5.27
"COc1ccc(-c2nn3c(-c4n[nH]c5c4CCC5)nnc3s2)cc1OC [Entry L1, 6-(3,4-Dimethoxyphenyl)-3-(1,4,5,6-tetrahydrocyclopenta[c]pyrazol-3-yl)-[1,2,4]triazolo[3,4-b][1,3,4]thiadiazole]",5.88,5.61,5.56,5.57,–,5.76
"CCN(CC)c1ccc(-c2nn3c(-c4cccc(C)c4)nnc3s2)cc1 [G, 6-(4-Diethylaminophenyl)-3-m-tolyl-[1,2,4]triazolo[3,4-b][1,3,4]thiadiazole]",5.63,–,–,5.53,–,5.65
"CCN(CC)c1ccc(-c2nn3c(-c4ccncc4)nnc3s2)cc1 [J, 6-(4-Diethylaminophenyl)-3-(pyridin-4-yl)-[1,2,4]triazolo[3,4-b][1,3,4]thiadiazole]",6.22,–,–,5.98,–,6.28
"COc1cc(-c2nnc3sc(-c4ccccc4)nn23)cc(OC)c1OC [W, 6-Phenyl-3-(3,4,5-trimethoxyphenyl)-[1,2,4]triazolo[3,4-b][1,3,4]thiadiazole]",< 5.00,5.30,< 5.00,< 5.00,< 5.00,< 5.00
"COc1cc(-c2nnc3sc(-c4ccncc4)nn23)cc(OC)c1OC [X, 6-(Pyridin-4-yl)-3-(3,4,5-trimethoxyphenyl)-[1,2,4]triazolo[3,4-b][1,3,4]thiadiazole]",< 5.00,5.44,5.63,< 5.00,5.70,< 5.00
"COc1cc(-c2nnc3sc(-c4cccs4)nn23)cc(OC)c1OC [Y, 6-(Thiophen-2-yl)-3-(3,4,5-trimethoxyphenyl)-[1,2,4]triazolo[3,4-b][1,3,4]thiadiazole]",< 5.00,5.26,< 5.00,< 5.00,< 5.00,< 5.00
"COc1ccc(-c2nn3c(-c4ccccc4Cl)nnc3s2)cc1 [Z, 3-(2-Chlorophenyl)-6-(4-methoxyphenyl)-[1,2,4]triazolo[3,4-b][1,3,4]thiadiazole]",6.02,–,–,5.81,–,5.99
